Experimental data taken from patent US8952024B2, “Herbicidal pyrimidone derivatives” (E I du Pont de Nemours and Company, priority 2009, dated 2015).

Key:
Test in all cases: Test B pre-/postemergence plant response
Assay type in all cases: in vivo
[1] = tested on: downy bromegrass (Bromus tectorum); conditions: for Bromegrass, Downy plant response rating (0 to 100 scale): 62 g ai/ha, 0 is no effect, 13 to 15 days
Outline: (§1)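 Seeds were sown in loam soil/sand blend and treated preemergence with compound in non-phytotoxic solvent mixture containing surfactant; postemergence sprays, same formulation, went onto plants 2 to 18 cm (1- to 4-leaf stage) in peat-based planting medium. Greenhouse 13 to 15 days, then visual rating versus untreated controls, 0 (no effect) to 100 (complete control).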

[2] = tested on: giant foxtail (Setaria faberii); conditions: for Foxtail, Giant plant response rating (0 to 100 scale): 62 g ai/ha, 0 is no effect, 13 to 15 days
Outline: as §1

[3] = tested on: goosegrass (Eleusine indica); conditions: for Goosegrass plant response rating (0 to 100 scale): 62 g ai/ha, 0 is no effect, 13 to 15 days
Outline: as §1

[4] = tested on: green foxtail (Setaria viridis); conditions: for Foxtail, Green plant response rating (0 to 100 scale): 62 g ai/ha, 0 is no effect, 13 to 15 days
Outline: as §1

[5] = tested on: johnsongrass (Sorghum halepense); conditions: for Johnsongrass plant response rating (0 to 100 scale): 62 g ai/ha, 0 is no effect, 13 to 15 days
Outline: as §1

[6] = tested on: kochia (Kochia scoparia); conditions: for Kochia plant response rating (0 to 100 scale): 62 g ai/ha, 0 is no effect, 13 to 15 days
Outline: as §1

[7] = tested on: lambsquarters (Chenopodium album); conditions: for Lambsquarters plant response rating (0 to 100 scale): 62 g ai/ha, 0 is no effect, 13 to 15 days
Outline: as §1

[8] = tested on: large crabgrass (Digitaria sanguinalis); conditions: for Crabgrass, Large plant response rating (0 to 100 scale): 62 g ai/ha, 0 is no effect, 13 to 15 days
Outline: as §1

[9] = tested on: pigweed (Amaranthus retroflexus); conditions: for Pigweed plant response rating (0 to 100 scale): 62 g ai/ha, 0 is no effect, 13 to 15 days
Outline: as §1

[10] = tested on: velvetleaf (Abutilon theophrasti); conditions: for Velvetleaf plant response rating (0 to 100 scale): 62 g ai/ha, postemergence, 0 is no effect, 100 is complete control, 13 to 15 days; for Plant response rating, Velvetleaf: Postemergence, scale 0 to 100 (0 no effect, 100 complete control)
Outline: as §1

[11] = tested on: wheat (Triticum aestivum); conditions: for Wheat plant response rating (0 to 100 scale): 62 g ai/ha, postemergence, 0 is no effect, 100 is complete control, 13 to 15 days; for Plant response rating, Wheat: Postemergence, 125 g ai/ha, scale 0 to 100 (0 no effect, 100 complete control)
Outline: as §1

[12] = tested on: woolly cupgrass (Eriochloa villosa); conditions: for Cupgrass, Woolly plant response rating (0 to 100 scale): 62 g ai/ha, 0 is no effect, 13 to 15 days
Outline: as §1

[13] = tested on: yellow nutsedge (Cyperus esculentus); conditions: for Nutsedge, Yellow plant response rating (0 to 100 scale): 62 g ai/ha, 0 is no effect, 13 to 15 days
Outline: as §1

[14] = 31 g ai/ha, postemergence, scale 0 to 100, 0 is no effect, 100 is complete control
[15] = postemergence, 100 is complete control
[16] = Postemergence, 125 g ai/ha, scale 0 to 100 (0 no effect, 100 complete control)
[17] = Postemergence, 250 g ai/ha, scale 0 to 100 (0 no effect, 100 complete control)

Which “Plant response rating, Bromegrass, Downy” value [1, 14] does the source give for COCCn1c(-c2cccc(C)c2)ncc(C(=O)C2=C(O)CCCC2=O)c1=O [Compound 117] here?
Its value is 5.

What about the “Bromegrass, Downy plant response rating (0 to 100 scale)” value [1, 15] of the same compound?
Its value is 10.

What about the “Plant response rating, Bromegrass, Downy” value [1, 16] of the same compound?
The value was 15.

And the “Plant response rating, Bromegrass, Downy” value [1, 17]?
The value was 45.

What about the “Plant response rating, Foxtail, Giant” value [2, 14] of the same compound?
The value was 65.

And the “Foxtail, Giant plant response rating (0 to 100 scale)” value [2, 15]?
The value was 75.

What about the “Plant response rating, Foxtail, Giant” value [2, 16] of the same compound?
The value was 80.

What about the “Plant response rating, Foxtail, Giant” value [2, 17] of the same compound?
The value was 95.

What about the “Plant response rating, Goosegrass” value [3, 14] of the same compound?
The value was 45.

And the “Goosegrass plant response rating (0 to 100 scale)” value [3, 15]?
Its value is 75.

What about the “Plant response rating, Goosegrass” value [3, 16] of the same compound?
The value was 75.

What about the “Plant response rating, Goosegrass” value [3, 17] of the same compound?
Its value is 85.

And the “Plant response rating, Foxtail, Green” value [4, 14]?
The value was 50.

And the “Foxtail, Green plant response rating (0 to 100 scale)” value [4, 15]?
Its value is 70.

And the “Plant response rating, Foxtail, Green” value [4, 16]?
The value was 80.

What about the “Plant response rating, Foxtail, Green” value [4, 17] of the same compound?
Its value is 95.

What about the “Plant response rating, Johnsongrass” value [5, 14] of the same compound?
Its value is 5.

What about the “Johnsongrass plant response rating (0 to 100 scale)” value [5, 15] of the same compound?
Its value is 20.

What about the “Plant response rating, Johnsongrass” value [5, 17] of the same compound?
The value was 25.

And the “Plant response rating, Kochia” value [6, 14]?
Its value is 45.

And the “Kochia plant response rating (0 to 100 scale)” value [6, 15]?
Its value is 50.

What about the “Plant response rating, Kochia” value [6, 17] of the same compound?
The value was 85.

What about the “Plant response rating, Lambsquarters” value [7, 14] of the same compound?
Its value is 95.

What about the “Lambsquarters plant response rating (0 to 100 scale)” value [7, 15] of the same compound?
Its value is 98.

What about the “Plant response rating, Lambsquarters” value [7, 16] of the same compound?
The value was 100.

What about the “Plant response rating, Lambsquarters” value [7, 17] of the same compound?
Its value is 100.

What about the “Plant response rating, Crabgrass, Large” value [8, 14] of the same compound?
Its value is 75.

What about the “Crabgrass, Large plant response rating (0 to 100 scale)” value [8, 15] of the same compound?
Its value is 80.

And the “Plant response rating, Crabgrass, Large” value [8, 16]?
The value was 95.

And the “Plant response rating, Crabgrass, Large” value [8, 17]?
The value was 95.

What about the “Plant response rating, Pigweed” value [9, 14] of the same compound?
The value was 95.

And the “Pigweed plant response rating (0 to 100 scale)” value [9, 15]?
The value was 98.

And the “Plant response rating, Pigweed” value [9, 17]?
The value was 100.

What about the “Velvetleaf plant response rating (0 to 100 scale)” value [10] of the same compound?
The value was 85.

What about the “Plant response rating, Velvetleaf” value ([10]; 125 g ai/ha) of the same compound?
The value was 95.

And the “Plant response rating, Velvetleaf” value ([10]; 250 g ai/ha)?
Its value is 100.

What about the “Wheat plant response rating (0 to 100 scale)” value [11] of the same compound?
The value was 5.

What about the “Plant response rating, Wheat” value [11] of the same compound?
The value was 20.

And the “Plant response rating, Cupgrass, Woolly” value [12, 14]?
Its value is 65.

What about the “Cupgrass, Woolly plant response rating (0 to 100 scale)” value [12, 15] of the same compound?
Its value is 85.

And the “Plant response rating, Cupgrass, Woolly” value [12, 16]?
Its value is 95.

And the “Plant response rating, Cupgrass, Woolly” value [12, 17]?
Its value is 98.

And the “Plant response rating, Nutsedge, Yellow” value [13, 14]?
The value was 0.

And the “Nutsedge, Yellow plant response rating (0 to 100 scale)” value [13, 15]?
Its value is 0.

And the “Plant response rating, Nutsedge, Yellow” value [13, 16]?
Its value is 25.

And the “Plant response rating, Nutsedge, Yellow” value [13, 17]?
The value was 35.

For COCCCn1c(-c2cccc(C)c2)ncc(C(=O)C2=C(O)CCCC2=O)c1=O [Compound 118, 5-[(2-hydroxy-6-oxo-1-cyclohexane-1-yl)carbonyl]-3-(3-methoxypropyl)-2-(3-methylphenyl)-4(3H)-pyrimidinone], which “Plant response rating, Bromegrass, Downy” value [1, 14] is on record?
Its value is 0.

And the “Bromegrass, Downy plant response rating (0 to 100 scale)” value [1, 15]?
The value was 5.

And the “Plant response rating, Bromegrass, Downy” value [1, 16]?
The value was 30.

And the “Plant response rating, Bromegrass, Downy” value [1, 17]?
Its value is 35.

And the “Plant response rating, Foxtail, Giant” value [2, 14]?
Its value is 75.

What about the “Foxtail, Giant plant response rating (0 to 100 scale)” value [2, 15] of the same compound?
Its value is 80.

And the “Plant response rating, Foxtail, Giant” value [2, 16]?
The value was 85.

And the “Plant response rating, Foxtail, Giant” value [2, 17]?
The value was 95.

What about the “Plant response rating, Goosegrass” value [3, 14] of the same compound?
The value was 55.

What about the “Goosegrass plant response rating (0 to 100 scale)” value [3, 15] of the same compound?
Its value is 65.

And the “Plant response rating, Goosegrass” value [3, 16]?
The value was 80.

What about the “Plant response rating, Goosegrass” value [3, 17] of the same compound?
Its value is 90.

And the “Plant response rating, Foxtail, Green” value [4, 14]?
Its value is 50.

What about the “Foxtail, Green plant response rating (0 to 100 scale)” value [4, 15] of the same compound?
Its value is 85.

And the “Plant response rating, Foxtail, Green” value [4, 16]?
The value was 95.

What about the “Plant response rating, Foxtail, Green” value [4, 17] of the same compound?
Its value is 95.

What about the “Plant response rating, Johnsongrass” value [5, 14] of the same compound?
The value was 10.

And the “Johnsongrass plant response rating (0 to 100 scale)” value [5, 15]?
The value was 10.

And the “Plant response rating, Johnsongrass” value [5, 16]?
Its value is 20.

What about the “Plant response rating, Johnsongrass” value [5, 17] of the same compound?
The value was 35.

And the “Plant response rating, Kochia” value [6, 14]?
The value was 45.

What about the “Kochia plant response rating (0 to 100 scale)” value [6, 15] of the same compound?
The value was 65.

What about the “Plant response rating, Kochia” value [6, 16] of the same compound?
The value was 70.

What about the “Plant response rating, Kochia” value [6, 17] of the same compound?
The value was 98.

And the “Plant response rating, Lambsquarters” value [7, 14]?
The value was 85.

What about the “Lambsquarters plant response rating (0 to 100 scale)” value [7, 15] of the same compound?
Its value is 98.

And the “Plant response rating, Lambsquarters” value [7, 16]?
Its value is 100.

What about the “Plant response rating, Lambsquarters” value [7, 17] of the same compound?
The value was 100.

What about the “Plant response rating, Crabgrass, Large” value [8, 14] of the same compound?
The value was 70.

What about the “Crabgrass, Large plant response rating (0 to 100 scale)” value [8, 15] of the same compound?
Its value is 75.

What about the “Plant response rating, Crabgrass, Large” value [8, 16] of the same compound?
The value was 80.

What about the “Plant response rating, Crabgrass, Large” value [8, 17] of the same compound?
The value was 95.

What about the “Plant response rating, Pigweed” value [9, 14] of the same compound?
Its value is 85.

And the “Pigweed plant response rating (0 to 100 scale)” value [9, 15]?
The value was 100.

And the “Plant response rating, Pigweed” value [9, 16]?
The value was 100.

What about the “Plant response rating, Pigweed” value [9, 17] of the same compound?
The value was 100.

What about the “Velvetleaf plant response rating (0 to 100 scale)” value [10] of the same compound?
The value was 75.

And the “Plant response rating, Velvetleaf” value ([10]; 125 g ai/ha)?
Its value is 98.

And the “Plant response rating, Velvetleaf” value ([10]; 250 g ai/ha)?
The value was 100.

And the “Wheat plant response rating (0 to 100 scale)” value [11]?
Its value is 5.

And the “Plant response rating, Wheat” value [11]?
Its value is 5.

What about the “Plant response rating, Cupgrass, Woolly” value [12, 14] of the same compound?
The value was 65.

What about the “Cupgrass, Woolly plant response rating (0 to 100 scale)” value [12, 15] of the same compound?
The value was 70.

And the “Plant response rating, Cupgrass, Woolly” value [12, 16]?
The value was 75.

What about the “Plant response rating, Cupgrass, Woolly” value [12, 17] of the same compound?
Its value is 95.

What about the “Plant response rating, Nutsedge, Yellow” value [13, 14] of the same compound?
The value was 35.

What about the “Nutsedge, Yellow plant response rating (0 to 100 scale)” value [13, 15] of the same compound?
The value was 45.

And the “Plant response rating, Nutsedge, Yellow” value [13, 16]?
The value was 65.

What about the “Plant response rating, Nutsedge, Yellow” value [13, 17] of the same compound?
The value was 65.
